# Reference: patent US20160220569A1, “CDK4/6 Inhibitor Dosage Formulations For The Protection Of Hematopoietic Stem And Progenitor Cells During Chemotherapy” (G1 Therapeutics, Inc., priority 2015, published 2016)
# Like-named read-outs stand apart in the source and are kept apart here.
# Experiment: 14-day oral gavage toxicokinetic study in rats
# Format: in vivo
# Settings: rat, plasma, po; for concentration at 0.5 h / concentration at 1 h / concentration at 2 h / concentration at 4 h / concentration at 8 h / concentration at 12 h / concentration at 24 h / concentration at […]: rats; for concentration at 1 h: Day 14, 1 h; for concentration at 24 h: Day 14, 24 h; for half-life: read-out: t½ (converted)
# Experimental: Plasma was obtained from blood samples collected from rats in a composite sampling scheme, with 3 samples collected per sex, per dose, at each target collection time, as illustrated in Table 21 to Table 25. Samples were collected from the vehicle control group on Day 1 and Day 14 at 3 hour after administration. […] Blood samples were collected in tubes containing K3EDTA as an anticoagulant and placed on ice until processed to plasma via centrifugation. Samples were stored frozen at −80° C. until shipment to the bioanalytical laboratory for analysis.
# The following parameters were determined:
# Cmax: Maximum observed plasma concentration (ng/mL).
# A value of 0 ng/mL was assigned to all values below the lower limit of quantitation (BLQ, <10.0 ng/mL).
# AUC(0-inf): Area under the plasma concentration vs. time curve extrapolated from 0 to infinity (ng*h/mL), calculated as AUC(0-t)+AUC(t-inf) where AUC(t-inf) is calculated as last measurable concentration (CLast) divided by ke, where ke is the elimination rate constant determined by linear regression of the last three analytically measured points on the log plasma concentration vs. time curve. The selection criteria of the data points for inclusion in the calculation of ke required that at least three data points representing the terminal phase (after Tmax) were regressed and that R2≧0.850 when rounded.
# CL: Clearance (L/h/kg), calculated as the dose divided by AUC(0-t).
# Vd: Volume of distribution (L/kg), calculated as dose divided by the product of ke and AUC(0-inf).
# Vdss: Steady state volume of distribution (L/kg), calculated as clearance […] mean residence time, where mean residence time is calculated as the area under the first moment curve divided by AUC(0-t).
# t½: Elimination half-life (h), calculated as ln(2)/ke, where ke is the elimination rate constant determined by linear regression. Half-life was defined as not determined if regression criteria (specified in AUC(0-inf) above) were not met.
# Cmax/Dose: Normalized Cmax, calculated as Cmax divided by total dose.
# AUC/Dose: Normalized AUC, calculated as AUC(0-t) divided by total dose.
# ii. Statistical Analysis Mean and standard deviation (SD) were calculated in Watson. Values of BLQ were assigned a value of 0 ng/mL for mean calculations. Concentration values and derived TK parameters were reported to three significant figures.
# [1] = both sexes, 15 mg/kg, Mean Compound 1 Plasma Concentration, oral 15 mg/kg, Overall
# [2] = both sexes, 15 mg/kg, oral 15 mg/kg, Study Day 1, Overall
# [3] = both sexes, 15 mg/kg, oral 15 mg/kg, Study Day 14, Overall
# [4] = both sexes, 30 mg/kg, Mean Compound 1 Plasma Concentration, oral 30 mg/kg, Overall
# [5] = both sexes, 30 mg/kg, oral 30 mg/kg, Study Day 1, Overall
# [6] = both sexes, 30 mg/kg, oral 30 mg/kg, Study Day 14, Overall
# [7] = female, 2 mg/kg, Compound 1 Plasma Concentration, Female, daily oral 2 mg/kg (Group 7), individual animals
compound,measurement,setting,value
"CN1CCN(c2ccc(Nc3ncc4cc5n(c4n3)C3(CCCCC3)CNC5=O)nc2)CC1 [Compound 1, 2′-((5-(4-methylpiperazin-1-yl)pyridin-2-yl)amino)-7′,8′-dihydro-6′H-spiro[cyclohexane-1,9′-pyrazino[1′,2′:1,5]pyrrolo[2,3-d]pyrimidin]-6′-one]",concentration at 0.5 h,"both sexes, 15 mg/kg, Mean Compound 1 Plasma Concentration, oral 15 mg/kg, Day 14, 0.5 h, Overall",955 ng/mL
same,concentration at 1 h,[1],1150 ng/mL
same,concentration at 2 h,"both sexes, 15 mg/kg, Mean Compound 1 Plasma Concentration, oral 15 mg/kg, Day 14, 2 h, Overall",1410 ng/mL
same,concentration at 4 h,"both sexes, 15 mg/kg, Mean Compound 1 Plasma Concentration, oral 15 mg/kg, Day 14, 4 h, Overall",1330 ng/mL
same,concentration at 8 h,"both sexes, 15 mg/kg, Mean Compound 1 Plasma Concentration, oral 15 mg/kg, Day 14, 8 h, Overall",1070 ng/mL
same,concentration at 12 h,"both sexes, 15 mg/kg, Mean Compound 1 Plasma Concentration, oral 15 mg/kg, Day 14, 12 h, Overall",715 ng/mL
same,concentration at 24 h,[1],95.3 ng/mL
same,AUC(0-inf),[2],19900 ng·h/mL
same,AUC(0-t),[2],19400 ng·h/mL
same,Cmax,[2],1490 ng/mL
same,Tmax,[2],2 h
same,half-life,[2],243 min
same,AUC(0-inf),[3],18700 ng·h/mL
same,AUC(0-t),[3],18100 ng·h/mL
same,Cmax,[3],1410 ng/mL
same,Tmax,[3],2 h
same,half-life,[3],268 min
same,concentration at 0.5 h,"both sexes, 30 mg/kg, Mean Compound 1 Plasma Concentration, oral 30 mg/kg, Day 1, 0.5 h, Overall",1790 ng/mL
same,concentration at 2 h,"both sexes, 30 mg/kg, Mean Compound 1 Plasma Concentration, oral 30 mg/kg, Day 1, 2 h, Overall",2360 ng/mL
same,concentration at 4 h,"both sexes, 30 mg/kg, Mean Compound 1 Plasma Concentration, oral 30 mg/kg, Day 1, 4 h, Overall",2380 ng/mL
same,concentration at 8 h,"both sexes, 30 mg/kg, Mean Compound 1 Plasma Concentration, oral 30 mg/kg, Day 1, 8 h, Overall",2160 ng/mL
same,concentration at 12 h,"both sexes, 30 mg/kg, Mean Compound 1 Plasma Concentration, oral 30 mg/kg, Day 1, 12 h, Overall",1800 ng/mL
same,concentration at 0.5 h,"both sexes, 30 mg/kg, Mean Compound 1 Plasma Concentration, oral 30 mg/kg, Day 14, 0.5 h, Overall",1270 ng/mL
same,concentration at 1 h,[4],1880 ng/mL
same,concentration at 2 h,"both sexes, 30 mg/kg, Mean Compound 1 Plasma Concentration, oral 30 mg/kg, Day 14, 2 h, Overall",1800 ng/mL
same,concentration at 4 h,"both sexes, 30 mg/kg, Mean Compound 1 Plasma Concentration, oral 30 mg/kg, Day 14, 4 h, Overall",2180 ng/mL
same,concentration at 8 h,"both sexes, 30 mg/kg, Mean Compound 1 Plasma Concentration, oral 30 mg/kg, Day 14, 8 h, Overall",1920 ng/mL
same,concentration at 12 h,"both sexes, 30 mg/kg, Mean Compound 1 Plasma Concentration, oral 30 mg/kg, Day 14, 12 h, Overall",1800 ng/mL
same,concentration at 24 h,[4],263 ng/mL
same,AUC(0-inf),[5],39400 ng·h/mL
same,AUC(0-t),[5],37500 ng·h/mL
same,Cmax,[5],2380 ng/mL
same,Tmax,[5],4 h
same,half-life,[5],299 min
same,AUC(0-inf),[6],37000 ng·h/mL
same,AUC(0-t),[6],35000 ng·h/mL
same,Cmax,[6],2180 ng/mL
same,Tmax,[6],4 h
same,half-life,[6],314 min
same,concentration at […],"both, 2 mg/kg, Mean Compound 1 Plasma Concentration, oral 2 mg/kg, Day 14, […], Overall",4 ng/mL
same,concentration at […],"both, 5 mg/kg, Mean Compound 1 Plasma Concentration, oral 5 mg/kg, Day 1, […], Overall",20.8 ng/mL
same,concentration at […],"both, 5 mg/kg, Mean Compound 1 Plasma Concentration, oral 5 mg/kg, Day 14, […], Overall",49 ng/mL
same,concentration at […],"both, 15 mg/kg, Mean Compound 1 Plasma Concentration, oral 15 mg/kg, Day 1, […], Overall",72.5 ng/mL
same,concentration at […],"both, 15 mg/kg, Mean Compound 1 Plasma Concentration, oral 15 mg/kg, Day 14, […], Overall",119 ng/mL
same,concentration at […],"both, 30 mg/kg, Mean Compound 1 Plasma Concentration, oral 30 mg/kg, Day 1, […], Overall",150 ng/mL
same,concentration at […],"both, 30 mg/kg, Mean Compound 1 Plasma Concentration, oral 30 mg/kg, Day 14, […], Overall",372 ng/mL
same,concentration at 0.5 h,"female, 2 mg/kg, Compound 1 Plasma Concentration, Female, Day 1, 0.5 h, daily oral 2 mg/kg (Group 7), individual animals",139 ng/mL
same,concentration at 2 h,"female, 2 mg/kg, Compound 1 Plasma Concentration, Female, Day 1, 2 h, daily oral 2 mg/kg (Group 7), individual animals",216 ng/mL
same,concentration at 12 h,"female, 2 mg/kg, Compound 1 Plasma Concentration, Female, Day 1, 12 h, daily oral 2 mg/kg (Group 7), individual animals",91.8 ng/mL
same,concentration at 0.5 h,"female, 2 mg/kg, Compound 1 Plasma Concentration, Female, Day 14, 0.5 h, daily oral 2 mg/kg (Group 7), individual animals",192 ng/mL
same,concentration at 1 h,[7],108 ng/mL
same,concentration at 2 h,"female, 2 mg/kg, Compound 1 Plasma Concentration, Female, Day 14, 2 h, daily oral 2 mg/kg (Group 7), individual animals",224 ng/mL
same,concentration at 4 h,"female, 2 mg/kg, Compound 1 Plasma Concentration, Female, Day 14, 4 h, daily oral 2 mg/kg (Group 7), individual animals",129 ng/mL
same,concentration at 24 h,[7],21.6 ng/mL
same,concentration at […],"female, 2 mg/kg, Compound 1 Plasma Concentration, Female, Day 14, […], daily oral 2 mg/kg (Group 7), individual animals",20 ng/mL
